In patent EP4291552B1, “MODULATORS OF COMPLEX I” (Boehringer Ingelheim International GmbH, priority 2021, dated 2022) one finds IC50 data, which are given here for 77 compounds.

The experiment concerns mice neuroblastoma cells (HT-22). Put plainly: Determination of Cellular Protection (HT22). Conditions: Mus musculus, HT-22, 16 h, read-out: HT22 IC50.

Take `CC(Nc1ccc2c(c1)/C(=C1\COCCN1)C(=O)N2C(C)C)c1cnccn1` (centres unmarked) [Compound 57]: the concentration for half-maximal inhibition (IC50) came to 199 nM.

Consider `CCC(CC)Nc1ccc2c(c1)/C(=C1\COCCN1)C(=O)N2C(C)C` [Compound 171], for which the IC50 amounted to 23 nM. As to `CC(C)N1C(=O)/C(=C2/COCCN2)c2cc(NCC(C)(C)C)ccc21` [Compound 145], the 50% inhibitory concentration (IC50) was 4 nM. Under `CC(Nc1ccc2c(c1)/C(=C1\COCCN1)C(=O)N2C(C)C)C1CCCC1` (centres unmarked) [Compound 56] stands 2 nM. As to `CC(Nc1ccc2c(c1)/C(=C1\COCCN1)C(=O)N2C(C)C)c1ccnn1C` (centres unmarked) [Compound 17], the IC50 was determined as 159 nM.

Take `CC(Nc1ccc2c(c1)/C(=C1\COCCN1)C(=O)N2C(C)C)c1cncnc1` (centres unmarked) [Compound 126]: the 50% inhibitory concentration (IC50) stood at 179 nM.

Take `CC(C)N1CCN/C(=C2\C(=O)N(C)c3ccc(N4CCCC4)cc32)C1` [Compound 23]: the 50% inhibitory concentration (IC50) was 173 nM.

Regarding `CC(C)N1C(=O)/C(=C2/CCOCCN2)c2cc(N3CCCC3)ccc21` [Compound 129], the IC50 worked out at 23 nM.

For the compound `CN(C)c1ccc2c(c1)/C(=C1\CCCN1)C(=O)N2C1CCOCC1` [Compound 42], the half-maximal inhibitory concentration (IC50) came to 951 nM. To `CC(C)Nc1ccc2c(c1)/C(=C1\COCCN1)C(=O)N2C1COC1` [Compound 135] belongs 158 nM. Under `O=C1/C(=C2/COCCN2)c2cc(NC3CCOCC3F)ccc2N1C1CCOCC1` (centres unmarked) [Compound 80] stands 345 nM; under `CC(C)Nc1ccc2c(c1)/C(=C1\COCCN1)C(=O)N2[C@H]1CCN(C2COC2)C1` [Compound 69], 141 nM. On to `CC(C)Nc1ccc2c(c1)/C(=C1\CN(C(C)C)CCN1)C(=O)N2C1CCOCC1` [Compound 46], for which the half-maximal inhibitory concentration (IC50) is 48 nM.

For `CN(C)c1ccc2c(c1)/C(=C1\CCCN1)C(=O)N2C` [Compound 1], the IC50 came out at 282 nM. To `O=C(CCO)Nc1ccc2c(c1)/C(=C1\COCCN1)C(=O)N2C1CCOC1` (centres unmarked) [Compound 169] belongs 336 nM; to `CC(C)Nc1ccc2c(c1)C(=C1CCOCC1)C(=O)N2C(C)C` [Compound 47], 85 nM; to `CC(C)N1C(=O)/C(=C2/COCCN2)c2cc(NC(C)C(C)(C)C)ccc21` (centres unmarked) [Compound 55], 38 nM. To `CC(C)Nc1ccc2c(c1)/C(=C1\CN(C3COC3)CCN1)C(=O)N2C1CCOCC1` [Compound 5] belongs 220 nM; to `CC1CCC(C)N1c1ccc2c(c1)/C(=C1\COCCN1)C(=O)N2C1CCOCC1` (centres unmarked) [Compound 156], 71 nM; to `CC(=O)N1CCC(Nc2ccc3c(c2)/C(=C2\COCCN2)C(=O)N3C(C)C)CC1` [Compound 172], 279 nM. To `Nc1ccc2c(c1)/C(=C1\CCCN1)C(=O)N2C1CCOCC1` [Compound 83] belongs 2080 nM; to `CC(C)N1C(=O)/C(=C2/CCCCN2)c2cc(N(C3CCC3)C3CCC3)ccc21` [Compound 113], 18 nM. As for `CC(C)Nc1ccc2c(c1)/C(=C1\CN(C(C)C)CCN1)C(=O)N2C1CCN(C(C)C)CC1` [Compound 8], the IC50 came to 41 nM. `CC(C)N1CCN/C(=C2\C(=O)N(C)c3ccc(N4CCCC4)cc32)CC1` [Compound 110]: the half-inhibitory concentration (IC50) was determined as 19 nM. To `COCC(C)N1C(=O)/C(=C2/COCCN2)c2cc(NC(C)C)ccc21` (centres unmarked) [Compound 28] belongs 118 nM; to `COCC(C)Nc1ccc2c(c1)/C(=C1\COCCN1)C(=O)N2C1CCOCC1` (centres unmarked) [Compound 99], 163 nM; to `CC(C)Nc1ccc2c(c1)/C(=C1\CN(C(C)C)CCN1)C(=O)N2C(C)C` [Compound 88], 10 nM.

Regarding `O=C1/C(=C2/COCCN2)c2cc(N3CCCCC3)ccc2N1C1CCOCC1` [Compound 86], the IC50 is 1110 nM. Under `CCC(CC)Nc1ccc2c(c1)/C(=C1\COCCN1)C(=O)N2C1CCOCC1` [Compound 76] stands 24 nM; under `CC(Nc1ccc2c(c1)/C(=C1\COCCN1)C(=O)N2C1CCOCC1)C1CCC1` (centres unmarked) [Compound 148], 16 nM. To `O=C1/C(=C2/COCCN2)c2cc(NC3CCOCC3)ccc2N1C1CCOC1` (centres unmarked) [Compound 32] belongs 205 nM; to `CC(=O)N1CCN/C(=C2\C(=O)N(C3CCOCC3)c3ccc(N4CCCC4)cc32)CC1` [Compound 12], 191 nM; to `CN(C)c1ccc2c(c1)/C(=C1\CCOCCN1)C(=O)N2C` [Compound 41], 983 nM. Under `O=C1/C(=C2/CCOCCN2)c2cc(NC3CCC3)ccc2N1C1CCOCC1` [Compound 120] stands 51 nM.

Turning to `CC(C)N1C(=O)C(=C2CCOCC2)c2cc(N3CCCC3)ccc21` [Compound 7], the concentration for half-maximal inhibition (IC50) turned out to be 256 nM. To `CC(C)Nc1ccc2c(c1)/C(=C1\COCCN1)C(=O)N2C` [Compound 63] belongs 134 nM.

Regarding `CC(Nc1ccc2c(c1)/C(=C1\COCCN1)C(=O)N2C(C)C)C1CC1` (centres unmarked) [Compound 97], the IC50 worked out at 17 nM.

On to `CC(Nc1ccc2c(c1)/C(=C1\COCCN1)C(=O)N2C(C)C)c1ccccn1` (centres unmarked) [Compound 71], for which the IC50 is 131 nM. Under `CCC(C)Nc1ccc2c(c1)/C(=C1\COCCN1)C(=O)N2C1CCOCC1` (centres unmarked) [Compound 59] stands 22 nM. To `CC(C)Nc1ccc2c(c1)/C(=C1\COCCN1)C(=O)N2[C@H]1CCN(C(C)C)C1` [Compound 31] belongs 41 nM; to `CN1CCC(Nc2ccc3c(c2)/C(=C2\COCCN2)C(=O)N3C2CCOCC2)CC1` [Compound 150], 286 nM. With `CC(C)N1CCC2(CC1)CN/C(=C1\C(=O)N(C(C)C)c3ccc(N4C(C)CCC4C)cc31)CO2` (centres unmarked) [Compound 139], the IC50 is 18 nM. Under `CC(Nc1ccc2c(c1)/C(=C1\COCCN1)C(=O)N2C(C)C)C1CCC1` (centres unmarked) [Compound 37] stands 3 nM; under `COCC(C)N1C(=O)/C(=C2/COCCN2)c2cc(N3CCC(O)C3)ccc21` (centres unmarked) [Compound 119], 439 nM.

In the case of `CC1CCC(C)N1c1ccc2c(c1)/C(=C1\CCOCCN1)C(=O)N2C1CCOCC1` (centres unmarked) [Compound 29], the IC50 was determined as 142 nM.

With `CC(C)Nc1ccc2c(c1)/C(=C1\COCCN1)C(=O)N2C1CCOCC1` [Compound 3], the half-inhibitory concentration (IC50) turned out to be 71 nM. To `CC(C)N1C(=O)/C(=C2/COCCN2)c2cc(NC3COC3)ccc21` [Compound 98] belongs 166 nM; to `O=C1/C(=C2/COCCN2)c2cc(NC3CCC3)ccc2N1C1CCOCC1` [Compound 132], 21 nM; to `COCC(C)N1C(=O)/C(=C2/COCCN2)c2cc(N3CCCC3)ccc21` (centres unmarked) [Compound 68], 134 nM. To `CC(C)Nc1ccc2c(c1)/C(=C1\COCC(C)N1)C(=O)N2C1CCOCC1` (centres unmarked) [Compound 33] belongs 37 nM; to `O=C1/C(=C2/COCCN2)c2cc(NC3COC3)ccc2N1C1CCOCC1` [Compound 175], 1190 nM; to `O=C1/C(=C2/COCCCN2)c2cc(NC3CCOC3)ccc2N1C1CCOCC1` (centres unmarked) [Compound 141], 646 nM. Consider `O=C1/C(=C2/COCCN2)c2cc(N3CCCC3)ccc2N1C1CCOCC1` [Compound 117], for which the IC50 was 22 nM. Under `CC(=O)N1CCN/C(=C2\C(=O)N(C3CCOCC3)c3ccc(NC(C)C)cc32)C1` [Compound 111] stands 249 nM; under `CN(C)c1ccc2c(c1)/C(=C1\CCCN1)C(=O)N2C1CCN(C(=O)C(F)(F)F)CC1` [Compound 153], 170 nM. Under `CC(C)N1C(=O)C(=C2CCOCC2)c2cc(NC3CCCC3)ccc21` [Compound 116] stands 9 nM; under `CC(C)N1C(=O)/C(=C2/COCCN2)c2cc(NCC3CC3)ccc21` [Compound 58], 19 nM.

As to `COCC(C)Nc1ccc2c(c1)/C(=C1\COCCN1)C(=O)N2C1CCOC1` (centres unmarked) [Compound 52], the 50% inhibitory concentration (IC50) amounted to 198 nM.

With `CN1CCN/C(=C2\C(=O)N(C)c3ccc(N4CCCC4)cc32)CC1` [Compound 64], the half-maximal inhibitory concentration (IC50) worked out at 65 nM. `CC(C)N1CCC(N2C(=O)/C(=C3/COCCN3)c3cc(N(C(C)C)C(C)C)ccc32)CC1` [Compound 122]: the IC50 worked out at 944 nM. To `O=C1/C(=C2/COCCN2)c2cc(NCC3CCOC3)ccc2N1C1CCOCC1` (centres unmarked) [Compound 151] belongs 184 nM.

For the compound `O=C1/C(=C2/CC3(CN2)COC3)c2cc(NC3CCOC3)ccc2N1C1CCOCC1` (centres unmarked) [Compound 70], the 50% inhibitory concentration (IC50) came to 1150 nM.

Regarding `Nc1ccc2c(c1)/C(=C1\COCCN1)C(=O)N2C1CCOCC1` [Compound 35], the half-maximal inhibitory concentration (IC50) came to 2720 nM.

Take `O=C1/C(=C2/COCCN2)c2cc(NC3CCC3)ccc2N1C1COC1` [Compound 51]: the concentration for half-maximal inhibition (IC50) stood at 33 nM. For the compound `CC(C)N1CCC(Nc2ccc3c(c2)/C(=C2\COCCN2)C(=O)N3C(C)C)CC1` [Compound 96], the IC50 worked out at 41 nM.

Turning to `CC(C)Nc1ccc2c(c1)C(=C1CCOCC1)C(=O)N2C1CCOCC1` [Compound 6], the IC50 is 207 nM.

As for `CC(C)Nc1ccc2c(c1)/C(=C1\COCCN1)C(=O)N2C1COCCOC1` [Compound 26], the 50% inhibitory concentration (IC50) turned out to be 59 nM.

With `CC1OCCC1Nc1ccc2c(c1)/C(=C1\COCCN1)C(=O)N2C1CCOCC1` (centres unmarked) [Compound 174], the IC50 was 143 nM.

On to `CC(C)N1C(=O)/C(=C2/COCCN2)c2cc(NC3CCOCC3)ccc21` [Compound 36], for which the half-inhibitory concentration (IC50) was found to be 56 nM. Under `O=C1/C(=C2/CCN(C3COC3)CCN2)c2cc(N3CCCC3)ccc2N1C1CCOCC1` [Compound 121] stands 192 nM; under `CC(=O)N1CCC2(CC1)CN/C(=C1\C(=O)N(C(C)C)c3ccc(N4CCCC4)cc31)CO2` [Compound 53], 55 nM; under `CC(C)N1C(=O)/C(=C2/COCCN2)c2cc(NCC3(C)COC3)ccc21` [Compound 127], 176 nM. Under `CC(C)Nc1ccc2c(c1)/C(=C1\CC3(CN1)COC3)C(=O)N2C1CCOCC1` [Compound 165] stands 253 nM; under `CN1C(=O)/C(=C2/CCOCCN2)c2cc(N3CCCC3)ccc21` [Compound 107], 69 nM. Under `CC(Nc1ccc2c(c1)/C(=C1\COCCN1)C(=O)N2C1CCOCC1)c1ccccn1` (centres unmarked) [Compound 77] stands 48 nM; under `CC(C)N1C(=O)C(=C2CCOCC2)c2cc(NC3CCC3)ccc21` [Compound 25], 96 nM. Take `CC(Nc1ccc2c(c1)/C(=C1\COCCN1)C(=O)N2C1COC1)C1CC1` (centres unmarked) [Compound 67]: the IC50 was 37 nM.
